One data set concerns the target HIV-1 NefNL4-3 (Human immunodeficiency virus type 1 group M subtype B, UniProt P03406, A33V/T15A/T51N/V11I). Nature of the data set: Surface plasmon resonance binding to recombinant full-length Nef (NL4-3). (Surface plasmon resonance follows binding to a sensor surface in real time, without labels.)
In data set [1] the target is Nef from SIV (strain mac239) (Simian immunodeficiency virus, UniProt Q5QGG3). Nature of the data set: biochemical.
Experimental: Also shown are SPR data recorded on a Reichert 4-channel SPR instrument. […] Recombinant Nef is immobilized on the biosensor surface, and each compound is injected and association/dissociation kinetics are recorded. The resulting data for the 3 isoforms are each best-fit using both a two-site model and a two-step, induced-fit model. Dissociation constants (KD), calculated from the kinetic association and dissociation constants from all three isoforms, are shown in columns 6-7. Data were fit using three regimes and the resulting KD: from each model are shown in the Table: 1:1 Langmuir fit; 2-site fit, which yields low and high affinity components; and a 2-step induced fit model.
For another data set, the system named is HIV-1 NL4-3. Nature of the data set: HIV-1 replication in normal donor PBMCs (p24 Gag AlphaLISA). Format: cell-based. The conditions noted are these: Table 1, 4 days, words (Not active, Borderline) where no bound is given. In outline:
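PHA/IL-2-activated donor PBMCs infected with HIV-1 NL4-3, wild-type or Δ-Nef, with inhibitor (1–1,000 nM, 0.1% DMSO) in IL-2 medium. Lysates taken after 4 days and p24 quantified by AlphaLISA against a p24 standard; IC50 by non-linear regression, CC50 by CellTiter-Blue in uninfected cells.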
In general terms: Bead proximity is the source of the signal in Alpha formats.

In another data set the test system is HIV-1NL4-3. Nature of the data set: HIV-1 infectivity assay in TZM-bl reporter cell line (LTR-luciferase, 48 h). It counts as cell-based. The conditions noted are these: Human immunodeficiency virus 1, TZM-bl. In outline: (§1)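 Nef-dependent infectivity in TZM-bl cells: HIV-1NL4-3 infection with 1 μM compound, luciferase read at 48 h, normalized against DMSO wild-type and Nef-defective controls. Compound cytotoxicity in uninfected cells measured by Cell Titer Blue.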

Another data set deals with T1, HIV-1 Nef SF2 (Human immunodeficiency virus type 1 group M subtype B, UniProt P03407).
T1 construct: made in house
Nature of the data set: biochemical. Format: binding. The note with it: two-step induced-fit model, Reichert SPR, read-out: Reichert SPR Nef SF2 (M) two-step fitting.

The test system of another data set is TZM-bl cell line. It counts as cell-based. The note with it: human, 1 μM. In outline:
as §1

For the next data set, the system named is uninfected PBMCs. Format: cell-based. The conditions noted are these: human. On the procedure:
FIG. 4. Inhibition of HIV-1 replication by compounds disclosed herein in PBMCs. Donor PBMCs were infected with HIV-1 in the presence of inhibitor concentrations ranging from 1 to 1,000 nM or the DMSO carrier solvent as a negative control (0.1% DMSO final). Replication was assessed by p24 Gag AlphaLISA (Perkin Elmer) […]. Each donor was also infected with Nef-defective HIV-1 to establish the baseline for Nef-dependent enhancement of replication in each culture. Cytotoxicity was assessed in uninfected PBMCs over the same incubation period using the CellTiter-Blue assay (Promega). Data were fit by non-linear regression analysis (GraphPad Prism v.7.04) to determine the IC50 and CC50 values shown.
Non-HLA-typed buffy coats (Source: Pittsburgh Central Blood Bank, #E3755) are received and processed within 24 hours of blood donation. PBMCs are isolated via rocking for RBC separation following 1:1 dilution with PBS, followed by Ficoll gradient centrifugation. The lymphocyte fraction is removed and washed several times for a final concentration of ˜150-300×10^6 cells per donor. Cells are activated for 3 days with 1-5 μg/mL PHA (Sigma) and 50 U/mL IL-2. Cells are plated at 750,000 cells/ml and viability is checked at day 3 using the Cell Titer Blue assay (Promega). If cells are >90% viable, then they are infected with HIV-1 NL4-3, wild-type or Δ-Nef mutant (input typically 30-500 pg/mL p24 capsid equivalents) in the presence or absence of Nef inhibitor analogs. IL-2 is included in the media at the time of infection. After 4 days, cells are lysed with 1% Triton X-100 for 1.5 h, checked for viability via Cell Titer Blue, and frozen/stored at −20° C. HIV-1 replication is assessed with a high-sensitivity HIV-1 p24 AlphaLISA assay (Perkin Elmer) in ½-volume 96-well plates, using one-half of the recommended assay volumes for all reagents (including samples). Assays are read on the BioTek Cytation5 instrument; readout is in AlphaUnits and replication in p24 pg/mL is determined using an HIV-1 p24 capsid protein standard included in the Alpha kit.

The structures appear in SMILES notation. pKd: −log10 of the molar value. Where two headings read alike, the source gives them in different places.

One may read the pKd as the Kd on a negative log10 scale, so that one unit is a factor of ten. The term inhibition denotes the change of the read-out against control, counted positive when it falls.

Consider `CS(=O)(=O)c1ccc(-c2nn(-c3nc4ccccc4[nH]3)c(O)c2CCc2ccc(F)cc2)cc1` [Compound I-148, 1-(1H-1,3-benzodiazol-2-yl)-4-[2-(4-fluorophenyl)ethyl]-3-(4-methanesulfonylphenyl)-1H-pyrazol-5-ol], for which the pKd is 6.18 on HIV-1 NefNL4-3; 9.48 on HIV-1 NefNL4-3 (KD, M, Table 4, SPR fit 2-step induced fit, KD = koff/kon × koff2/(koff2 + kon2)); 5.75 on HIV-1 NefNL4-3 (Nef NL4-3 Binding, SPR 1:1 or 2-site fitting KD2, Table 1, 2-site fit, second component); 9.48 on HIV-1 NefNL4-3 (Nef NL4-3 Binding, SPR 2-state fitting KD, Table 1, 2-step induced-fit model); 8.97 in data set [1]. Moreover, the Kd worked out at 3.33e-10 M on HIV-1 NefNL4-3 (Reichert SPR Nef NL43 (M) two-step fitting, KD, two-step induced-fit model, Reichert SPR, Table 3) and 2.07e-11 M at HIV-1 Nef SF2. Further, the “T, minutes (residence time)” value on HIV-1 NefNL4-3 (Table 4, 2-step induced fit, T = 1/koff2) is 3.26E + 04 minutes. Moreover, the “RU30/RUNef (extent of binding)” value at HIV-1 NefNL4-3 (response units at 30 μM relative to Nef immobilized on the SPR chip) is 1.32E- 02. Besides, in the data set with HIV-1 NL4-3, the “HIV Replication PBMC IC50 vs. HIV NL4-3” value was “Not active”. Besides, the inhibition at 1 µM in the data set on HIV-1NL4-3 (1.0 μM, TZM-bl reporter cell line, Table 4, read-out: % Infectivity Inhibition) came out at 98.1%; in the data set on HIV-1NL4-3 (1 μM, TZM-bl, normalized: DMSO wild-type HIV-1 = 0%, Nef-defective HIV-1 = 100%, read-out: HIV-1 Infectivity % Inhibition norm. to Δ-Nef @ 1 μM) it was 98.1%; in the data set with HIV-1NL4-3 (48 h, Table 1, TZM-bl cells, 1 μM, 48 h, 100% = Nef-defective HIV-1, read-out: HIV-1 Infectivity % Inhibition Norm. to Δ-Nef @ 1 μM) it was 98.1%. Besides, the “% Cell Viability” value with TZM-bl cell line is recorded as 75.5%. Besides, the “Percent Viability @ 1 μM (TZM-bl cells)” value with TZM-bl cell line worked out at 75.5%. Besides, the “Toxicity in HIV Replication PBMC (Toxic @ concentration)” value in the data set on uninfected PBMCs is “Toxic @ 1 μM”.

These data come from patent US20220380341A1, “INHIBITORS OF HIV-1 NEF FOR THE TREATMENT OF HIV DISEASE” (priority 2018, published 2022).
